Read-outs that look alike come from different tables or passages of the source.
Key:
Assay in all cases: Etest MIC of indicator carbapenems on MH II agar without/with PMBN
Assay type in all cases: cell-based
[1] = test system: E. cloacae 1204058 (membrane impermeability); conditions: in µg/mL
Procedure: (§1) The determinations of antibiotic MIC were carried out on solid culture media with the Etest® method. To do this, Etest® strips (bioMérieux, France) were used: • Etest® Imipenem IM 32, and • Etest® Ertapenem ETP 32, and also solid culture media, differing from one another by virtue of their non-inhibitory concentrations of PMBN.
(§2) These solid culture media are prepared in Petri dishes (0=145 mm; V=50 ml) on a base of MH II Agar (Becton Dickinson®, United States), more or less supplemented with PMBN. The PMBN concentrations range from 0 up to concentrations equivalent to one fifth of the MIC of PMBN (⅕ MICPMBN).
(§3) Using a swab and the Retro C80™ rota-plater (bioMérieux, France), the culture media were inoculated with the bacteria, originating from an inoculum of 0.5 McFarland, prepared in 0.85% NaCl solution from colonies subcultured the day before on MH II agar.
(§4) The various Etest® strips are then deposited on the surface of the culture media. After 16 to 20 hours of incubation at 35° C., the MICS were read.
(§5) By way of indicator carbapenems according to the invention, in addition to imipenem (IM) and ertapenem (ETP), meropenem (MP) was also tested. Like the other two antibiotics, meropenem was used in the form of Etest® strips (Etest® Meropenem MP 32 from the company bioMérieux, France).
(§6) The methods used to prepare the new culture media and to carry out the antibiotic-sensitivity tests are identical to those described above.

[2] = test system: E. cloacae 1204053 (membrane impermeability)
Procedure: as §1, §2, §3, §4, §5, §6

[3] = test system: K. pneumoniae 1108003 (KPC-3 producer)
Procedure: as §1, §2, §3, §4, §5, §6

E. coli SAB 100 (porin−) = conditions: Escherichia coli
Procedure: as §1, §2, §3, §4, §5, §6

[4] = test system: K. pneumoniae 1204039 (membrane impermeability)
Procedure: as §1, §2, §3, §4, §5, §6

[5] = test system: E. aerogenes 1204050 (membrane impermeability); conditions: in µg/mL
Procedure: as §1, §2, §3, §4, §5, §6

K. pneumoniae 1002015 = conditions: Klebsiella pneumoniae, 1002015, K. pneumoniae 1002015 (porin−), Table 4, read-out: MIC
Procedure: as §1, §2, §3, §4
(§7) To do this, imipenem and ertapenem were used as indicator carbapenems. Non-inhibitory concentrations of PMBN, equivalent to concentrations of one tenth ( 1/10), one eighth (⅛) and one fifth (⅕) of the MIC of PMBN, were applied.
(§8) In the light of the MICPMBN values previously identified, very predominantly much higher than 300 μg/ml, the following standard concentrations were retained and applied to the bacterial strains to be tested: 50, 100, 150, 200 and 300 μg/ml.
as §5, §6

E. cloacae 9402034 = E. cloacae 9402034 (membrane impermeability), Table 4a
Procedure: as §1, §2, §3, §4, §7, §8, §5, §6

E. aerogenes 1204048 = E. aerogenes 1204048 (membrane impermeability), Table 4a, in µg/mL
Procedure: as §1, §2, §3, §4, §7, §8, §5, §6

K. pneumoniae 1204034 = test system: K. pneumoniae 1204034
Procedure: as §1, §2, §3, §4, §7, §8, §5, §6

E. aerogenes 9203076 = test system: E. aerogenes 9203076
Procedure: as §1, §2, §3, §4, §7, §8, §5, §6

E. aerogenes 9306071 = E. aerogenes 9306071 (membrane impermeability), Table 4a
Procedure: as §1, §2, §3, §4, §7, §8, §5, §6

E. coli 1204043 = test system: E. coli 1204043
Procedure: as §1, §2, §3, §4, §7, §8, §5, §6

With `C[C@@H](O)[C@H]1C(=O)N2C(C(=O)O)=C(S[C@@H]3CN[C@H](C(=O)N(C)C)C3)[C@H](C)[C@H]12` [MP, meropenem] the MIC ([1]; [PMBN] 0, Table 4a) was >32, the MIC ([1]; [PMBN] 100, Table 4a) was 2 and the MIC ([1]; [PMBN] 200, Table 4a) was 0.75. The MIC ([1]; [PMBN] 300, Table 4a) was 0.25, the MIC ([2]; [PMBN] 0, Table 4a) was 4 µg/mL and the MIC ([2]; [PMBN] 100, Table 4a) was 2 µg/mL. The MIC ([2]; [PMBN] 200, Table 4a) was 2 µg/mL, the MIC ([2]; [PMBN] 300, Table 4a) was 1.5 µg/mL and the MIC ([3]; [PMBN] 0, Table 4a) was 6 µg/mL. For the same compound, the MIC ([3]; [PMBN] 100, Table 4a) was > 32 µg/mL, the MIC ([3]; [PMBN] 200, Table 4a) was > 32 µg/mL and the MIC ([3]; [PMBN] 300, Table 4a) was 4 µg/mL. For the same compound, the MIC (E. coli SAB 100 (porin−); [PMBN] 0) was 0.125 µg/mL, the MIC (E. coli SAB 100 (porin−); [PMBN] 50 μg/ml) was 0.094 µg/mL and the MIC (E. coli SAB 100 (porin−); [PMBN] 100 μg/ml) was 0.047 µg/mL. The MIC (E. coli SAB 100 (porin−); [PMBN] 150 μg/ml) was 0.032 µg/mL, the MIC (E. coli SAB 100 (porin−); [PMBN] 200 μg/ml) was 0.032 µg/mL and the MIC ([4]; [PMBN] 0, Table 4a) was 0.75 µg/mL. The MIC ([4]; [PMBN] 100, Table 4a) was 0.5 µg/mL, the MIC ([4]; [PMBN] 200, Table 4a) was 0.38 µg/mL and the MIC ([4]; [PMBN] 300, Table 4a) was 0.38 µg/mL. The MIC ([5]; [PMBN] 0, Table 4a) was >32, the MIC ([5]; [PMBN] 100, Table 4a) was 2-4 and the MIC ([5]; [PMBN] 200, Table 4a) was 1.5-2. For the same compound, the MIC ([5]; [PMBN] 300, Table 4a) was 1, the MIC (K. pneumoniae 1002015; [PMBN] 0) was 2 µg/mL and the MIC (K. pneumoniae 1002015; [PMBN] 150 μg/ml) was 0.19 µg/mL. It also gave an MIC (K. pneumoniae 1002015; [PMBN] 200 μg/ml) of 0.19 µg/mL, an MIC (E. cloacae 9402034; [PMBN] 0) of 16 µg/mL and an MIC (E. cloacae 9402034; [PMBN] 100) of 2 µg/mL. For the same compound, the MIC (E. cloacae 9402034; [PMBN] 200) was 2 µg/mL, the MIC (E. cloacae 9402034; [PMBN] 300) was 3 µg/mL and the MIC (E. aerogenes 1204048; [PMBN] 0) was >32. The MIC (E. aerogenes 1204048; [PMBN] 100) was 1.5, the MIC (E. aerogenes 1204048; [PMBN] 200) was 1 and the MIC (E. aerogenes 1204048; [PMBN] 300) was 0.5-1. The MIC (K. pneumoniae 1204034; K. pneumoniae 1204034 (membrane impermeability), [PMBN] 0, Table 4a) was 16 µg/mL, the MIC (K. pneumoniae 1204034; K. pneumoniae 1204034 (membrane impermeability), [PMBN] 100, Table 4a) was 1.5 µg/mL and the MIC (K. pneumoniae 1204034; K. pneumoniae 1204034 (membrane impermeability), [PMBN] 200, Table 4a) was 0.75 µg/mL. For the same compound, the MIC (K. pneumoniae 1204034; K. pneumoniae 1204034 (membrane impermeability), [PMBN] 300, Table 4a) was 0.38 µg/mL, the MIC (K. pneumoniae 1204034; Klebsiella pneumoniae, 1204034, K. pneumoniae 1204034 (porin−), [PMBN] 0, Table 4, read-out: MIC) was 12 µg/mL and the MIC (K. pneumoniae 1204034; Klebsiella pneumoniae, 1204034, K. pneumoniae 1204034 (porin−), [PMBN] 150 μg/ml, Table 4, read-out: MIC) was 0.5 µg/mL. For the same compound, the MIC (K. pneumoniae 1204034; Klebsiella pneumoniae, 1204034, K. pneumoniae 1204034 (porin−), [PMBN] 200 μg/ml, Table 4, read-out: MIC) was 0.25 µg/mL, the MIC (E. aerogenes 9203076; E. aerogenes 9203076 (membrane impermeability), [PMBN] 0, Table 4a, in µg/mL) was 4 and the MIC (E. aerogenes 9203076; E. aerogenes 9203076 (membrane impermeability), [PMBN] 100, Table 4a, in µg/mL) was 2. For the same compound, the MIC (E. aerogenes 9203076; E. aerogenes 9203076 (membrane impermeability), [PMBN] 200, Table 4a, in µg/mL) was 1.5, the MIC (E. aerogenes 9203076; E. aerogenes 9203076 (membrane impermeability), [PMBN] 300, Table 4a, in µg/mL) was 0.5-0.75 and the MIC (E. aerogenes 9203076; Klebsiella aerogenes, 9203076, E. aerogenes 9203076 (porin−), [PMBN] 0, Table 4, read-out: MIC) was 4 µg/mL. For the same compound, the MIC (E. aerogenes 9203076; Klebsiella aerogenes, 9203076, E. aerogenes 9203076 (porin−), [PMBN] 150 μg/ml, Table 4, read-out: MIC) was 0.5 µg/mL, the MIC (E. aerogenes 9203076; Klebsiella aerogenes, 9203076, E. aerogenes 9203076 (porin−), [PMBN] 200 μg/ml, Table 4, read-out: MIC) was 0.5 µg/mL and the MIC (E. aerogenes 9306071; [PMBN] 0) was 4 µg/mL. The MIC (E. aerogenes 9306071; [PMBN] 100) was 1.5 µg/mL, the MIC (E. aerogenes 9306071; [PMBN] 200) was 1.5 µg/mL and the MIC (E. aerogenes 9306071; [PMBN] 300) was 0.5 µg/mL. It also gave an MIC (E. coli 1204043; E. coli 1204043 (membrane impermeability), [PMBN] 0, Table 4a, in µg/mL) of 4, an MIC (E. coli 1204043; E. coli 1204043 (membrane impermeability), [PMBN] 100, Table 4a, in µg/mL) of 0.75 and an MIC (E. coli 1204043; E. coli 1204043 (membrane impermeability), [PMBN] 200, Table 4a, in µg/mL) of 0.38. For the same compound, the MIC (E. coli 1204043; E. coli 1204043 (membrane impermeability), [PMBN] 300, Table 4a, in µg/mL) was 0.19, the MIC (E. coli 1204043; Escherichia coli, 1204043, E. coli 1204043 (porin−), [PMBN] 0, Table 4, read-out: MIC) was 3 µg/mL and the MIC (E. coli 1204043; Escherichia coli, 1204043, E. coli 1204043 (porin−), [PMBN] 150 μg/ml, Table 4, read-out: MIC) was 0.064 µg/mL. It also gave an MIC (E. coli 1204043; Escherichia coli, 1204043, E. coli 1204043 (porin−), [PMBN] 200 μg/ml, Table 4, read-out: MIC) of 0.008 µg/mL.

Source: US20180155757A1, “IDENTIFICATION OF BACTERIA THAT ARE RESISTANT TO CARBAPENEMS BY MEMBRANE IMPERVIOUSNESS” (BIOMÉRIEUX, priority 2015, published 2018)
